This is an account of results in patent US20100234438A1, “THERAPEUTIC AGENTS” (priority 2006, published 2010).

This experiment deals with T1, CB1 receptor (Homo sapiens, UniProt P21554).
T1 construct: expressed in transfected cells
Put plainly: [35S]-GTPγS binding assay on membranes from cells stably transfected with the CB1 gene, inhibition of agonist CP55940 (EC80). It counts as biochemical. Particulars: half maximal inhibition of GTPγS binding in presence of EC80 concentration of CP55940; 30° C., 45 min. As to the method: The compound of the present invention is active against the receptor product of the CB1 gene. The affinity of the compounds of the invention for central cannabinoid receptors is demonstrable in methods described in Devane et al, Molecular Pharmacology, 1988, 34,605 or those described in WO01/70700 or EP 656354. Alternatively the assay may be performed as follows.
10 μg of membranes prepared from cells stably transfected with the CB1 gene were suspended in 200 μl of 100 mM NaCl, 5 mM MgCl2, 1 mM EDTA, 50 mM HEPES (pH 7.4), 1 mM DTT, 0.1% BSA and 100 μM GDP. To this was added an EC80 concentration of agonist (CP55940), the required concentration of test compound and 0.1 μCi [^35S]-GTPγS. The reaction was allowed to proceed at 30° C. for 45 min. […] Filters were then covered with scintilant and counted for the amount of [^35S]-GTPγS retained by the filter.
Activity is measured in the absence of all ligands (minimum activity) or in the presence of an EC80 concentration of CP55940 (maximum activity). […] At various concentrations of novel ligand, activity is calculated as a percentage of the maximum activity and plotted. The data are fitted using the equation y=A+((B−A)/1+((C/x) ÙD)) and the IC50 value determined as the concentration required to give half maximal inhibition of GTPγS binding under the conditions used.
In general terms: GTPγS is a poorly hydrolysed GTP analogue; its binding reports G protein activation.

T1 sequence (P21554 whole entry): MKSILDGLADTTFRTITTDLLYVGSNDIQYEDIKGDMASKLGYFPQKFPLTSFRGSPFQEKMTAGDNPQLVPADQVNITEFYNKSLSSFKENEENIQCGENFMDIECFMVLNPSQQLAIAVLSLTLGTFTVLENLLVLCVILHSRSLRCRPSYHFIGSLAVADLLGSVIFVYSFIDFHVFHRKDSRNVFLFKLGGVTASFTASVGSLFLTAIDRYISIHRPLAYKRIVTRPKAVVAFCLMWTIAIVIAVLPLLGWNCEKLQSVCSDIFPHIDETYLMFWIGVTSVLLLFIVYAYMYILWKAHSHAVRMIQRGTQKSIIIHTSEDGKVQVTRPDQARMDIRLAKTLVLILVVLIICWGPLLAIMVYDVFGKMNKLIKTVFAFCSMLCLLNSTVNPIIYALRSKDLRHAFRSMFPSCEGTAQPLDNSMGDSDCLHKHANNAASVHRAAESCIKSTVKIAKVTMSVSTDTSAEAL

What is called IC50 is the concentration at which inhibition is half-maximal. `O=C(N[C@@H]1CCCC[C@@H]1O)c1nn(-c2ccc(Cl)cc2Cl)c(-c2ccc(OS(=O)(=O)CCC(F)(F)F)cc2)c1CO` (single isomer, unassigned) [Example 1, (−)3,3,3-Trifluoro-propane-1-sulfonic acid 4-[2-(2,4-dichloro-phenyl)-5-(2-hydroxy-cyclohexylcarbamoyl)-4-hydroxymethyl-2H-pyrazol-3-yl]-phenyl ester]: the IC50 is 2.3 nM.
